Measurements as given in article PMC8119466, “A screen of FDA-approved drugs identifies inhibitors of protein tyrosine phosphatase 4A3 (PTP4A3 or PRL-3)” (Scientific Reports, 2021).
Structures can show the parent of a compound that is named as a salt.

What was measured:
Assay type in all cases: biochemical
Settings in all cases: FDA-approved drug screen; compared to DMSO
recombinant PRL-3 = target: T1, recombinant PRL-3 (Homo sapiens, UniProt O75365); experiment: In vitro phosphatase assay (DiFMUP hydrolysis), PRL-3; further: test concentration or dose not given here
T1 construct: 6xHis (N, cleaved yes); made in house; host or cells: E. coli One Shot BL21 Star

recombinant PRL-2 = target: T2, recombinant PRL-2 (Homo sapiens, UniProt Q12974); experiment: In vitro phosphatase assay (DiFMUP hydrolysis), PRL-2;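 further: PRL-2 activity read as DiFMUP hydrolysis after 20 min at room temperature with drug, enzyme first pre-reduced at 4 °C for 20 min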
T2 construct: 6xHis (N, cleaved yes); made in house; host or cells: E. coli One Shot BL21 Star
T2 sequence (Q12974 1-167): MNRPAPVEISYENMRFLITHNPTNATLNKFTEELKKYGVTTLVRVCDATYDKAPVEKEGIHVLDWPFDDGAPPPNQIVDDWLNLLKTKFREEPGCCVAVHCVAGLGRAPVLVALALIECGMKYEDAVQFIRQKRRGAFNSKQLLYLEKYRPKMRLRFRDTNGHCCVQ

recombinant PRL-1 = target: T3, recombinant PRL-1 (Homo sapiens, UniProt Q93096); experiment: In vitro phosphatase assay (DiFMUP hydrolysis), PRL-1; further: test concentration or dose not given here
T3 construct: 6xHis (N, cleaved yes); made in house; host or cells: E. coli One Shot BL21 Star
T3 sequence (Q93096 1-173): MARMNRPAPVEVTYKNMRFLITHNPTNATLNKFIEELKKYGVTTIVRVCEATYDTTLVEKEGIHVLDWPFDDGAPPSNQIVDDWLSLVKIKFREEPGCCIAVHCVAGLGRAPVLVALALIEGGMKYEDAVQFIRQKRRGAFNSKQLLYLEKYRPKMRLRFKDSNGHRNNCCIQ

T1 sequence (O75365 whole entry): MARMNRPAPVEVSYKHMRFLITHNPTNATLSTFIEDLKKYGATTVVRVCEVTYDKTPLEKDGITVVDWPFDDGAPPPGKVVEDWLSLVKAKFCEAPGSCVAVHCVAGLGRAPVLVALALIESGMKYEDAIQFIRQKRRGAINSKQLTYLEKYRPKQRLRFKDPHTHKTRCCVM

CC(C)C[C@H](NC(=O)[C@H](Cc1ccccc1)NC(=O)c1cnccn1)B(O)O [Bortezomib (PS-341)]
% Phosphatase Activity (compared to DMSO) PRL-3 (recombinant PRL-3): 93% | % Phosphatase Activity (compared to DMSO) PRL-2 (recombinant PRL-2): 121% | % Phosphatase Activity (compared to DMSO) PRL-1 (recombinant PRL-1): 104%

COc1ccccc1Oc1c(NS(=O)(=O)c2ccc(C(C)(C)C)cc2)nc(-c2ncccn2)nc1OCCO [Bosentan Hydrate]
% Phosphatase Activity (compared to DMSO) PRL-3 (recombinant PRL-3): 93% | % Phosphatase Activity (compared to DMSO) PRL-2 (recombinant PRL-2): 96% | % Phosphatase Activity (compared to DMSO) PRL-1 (recombinant PRL-1): 87%

COc1ccccc1Oc1c(NS(=O)(=O)c2ccc(C(C)(C)C)cc2)nc(-c2ncccn2)nc1OCCO [Bosentan]
% Phosphatase Activity (compared to DMSO) PRL-3 (recombinant PRL-3): 71% | % Phosphatase Activity (compared to DMSO) PRL-2 (recombinant PRL-2): 84% | % Phosphatase Activity (compared to DMSO) PRL-1 (recombinant PRL-1): 83%

O=c1ccc2ccc(OCCCCN3CCN(c4cccc5sccc45)CC3)cc2[nH]1 [Brexpiprazole]
% Phosphatase Activity (compared to DMSO) PRL-3 (recombinant PRL-3): 92% | % Phosphatase Activity (compared to DMSO) PRL-2 (recombinant PRL-2): 115% | % Phosphatase Activity (compared to DMSO) PRL-1 (recombinant PRL-1): 97%

CCN[C@H]1CN(CCCOC)S(=O)(=O)c2sc(S(N)(=O)=O)cc21 [Brinzolamide]
% Phosphatase Activity (compared to DMSO) PRL-3 (recombinant PRL-3): 81% | % Phosphatase Activity (compared to DMSO) PRL-2 (recombinant PRL-2): 110% | % Phosphatase Activity (compared to DMSO) PRL-1 (recombinant PRL-1): 92%

Nc1c(CC(=O)O)cccc1C(=O)c1ccc(Br)cc1 [Bromfenac Sodium]
% Phosphatase Activity (compared to DMSO) PRL-3 (recombinant PRL-3): 75% | % Phosphatase Activity (compared to DMSO) PRL-2 (recombinant PRL-2): 99% | % Phosphatase Activity (compared to DMSO) PRL-1 (recombinant PRL-1): 86%

CN(Cc1cc(Br)cc(Br)c1N)C1CCCCC1 [Bromhexine HCl]
% Phosphatase Activity (compared to DMSO) PRL-3 (recombinant PRL-3): 86% | % Phosphatase Activity (compared to DMSO) PRL-2 (recombinant PRL-2): 122% | % Phosphatase Activity (compared to DMSO) PRL-1 (recombinant PRL-1): 95%

CN(C)CCC(c1ccc(Br)cc1)c1ccccn1.O=C(O)/C=C\C(=O)O (stereo not drawn) [Brompheniramine hydrogen maleate]
% Phosphatase Activity (compared to DMSO) PRL-3 (recombinant PRL-3): 78% | % Phosphatase Activity (compared to DMSO) PRL-2 (recombinant PRL-2): 107% | % Phosphatase Activity (compared to DMSO) PRL-1 (recombinant PRL-1): 108%

O=[N+]([O-])C(Br)(CO)CO [Bronopol]
% Phosphatase Activity (compared to DMSO) PRL-3 (recombinant PRL-3): 86% | % Phosphatase Activity (compared to DMSO) PRL-2 (recombinant PRL-2): 96% | % Phosphatase Activity (compared to DMSO) PRL-1 (recombinant PRL-1): 103%

Oc1c(Br)cc(Br)c2cccnc12 [Broxyquinoline]
% Phosphatase Activity (compared to DMSO) PRL-3 (recombinant PRL-3): 72% | % Phosphatase Activity (compared to DMSO) PRL-2 (recombinant PRL-2): 101% | % Phosphatase Activity (compared to DMSO) PRL-1 (recombinant PRL-1): 94%

CCOc1ccc(NC(=O)CC(C)O)cc1 (stereo not drawn) [Bucetin]
% Phosphatase Activity (compared to DMSO) PRL-3 (recombinant PRL-3): 92% | % Phosphatase Activity (compared to DMSO) PRL-2 (recombinant PRL-2): 108% | % Phosphatase Activity (compared to DMSO) PRL-1 (recombinant PRL-1): 109%

CCCC1O[C@@H]2C[C@H]3[C@@H]4CCC5=CC(=O)C=C[C@]5(C)[C@H]4[C@@H](O)C[C@]3(C)[C@]2(C(=O)CO)O1 (stereo partly drawn) [Budesonide]
% Phosphatase Activity (compared to DMSO) PRL-3 (recombinant PRL-3): 76% | % Phosphatase Activity (compared to DMSO) PRL-2 (recombinant PRL-2): 100% | % Phosphatase Activity (compared to DMSO) PRL-1 (recombinant PRL-1): 93%

CCCCOc1ccc(CC(=O)NO)cc1 [Bufexamac]
% Phosphatase Activity (compared to DMSO) PRL-3 (recombinant PRL-3): 91% | % Phosphatase Activity (compared to DMSO) PRL-2 (recombinant PRL-2): 110% | % Phosphatase Activity (compared to DMSO) PRL-1 (recombinant PRL-1): 117%

CCCCNc1cc(C(=O)O)cc(S(N)(=O)=O)c1Oc1ccccc1 [Bumetanide]
% Phosphatase Activity (compared to DMSO) PRL-3 (recombinant PRL-3): 98% | % Phosphatase Activity (compared to DMSO) PRL-2 (recombinant PRL-2): 128% | % Phosphatase Activity (compared to DMSO) PRL-1 (recombinant PRL-1): 123%

CCCCN1CCCCC1C(=O)Nc1c(C)cccc1C (stereo not drawn) [Bupivacaine HCl]
% Phosphatase Activity (compared to DMSO) PRL-3 (recombinant PRL-3): 82% | % Phosphatase Activity (compared to DMSO) PRL-2 (recombinant PRL-2): 108% | % Phosphatase Activity (compared to DMSO) PRL-1 (recombinant PRL-1): 108%

O=C1CC2(CCCC2)CC(=O)N1CCCCN1CCN(c2ncccn2)CC1 [Buspirone HCl]
% Phosphatase Activity (compared to DMSO) PRL-3 (recombinant PRL-3): 75% | % Phosphatase Activity (compared to DMSO) PRL-2 (recombinant PRL-2): 91% | % Phosphatase Activity (compared to DMSO) PRL-1 (recombinant PRL-1): 89%

CS(=O)(=O)OCCCCOS(C)(=O)=O [Busulfan]
% Phosphatase Activity (compared to DMSO) PRL-3 (recombinant PRL-3): 79% | % Phosphatase Activity (compared to DMSO) PRL-2 (recombinant PRL-2): 95% | % Phosphatase Activity (compared to DMSO) PRL-1 (recombinant PRL-1): 103%

CCCCOC(=O)c1ccc(N)cc1 [Butamben]
% Phosphatase Activity (compared to DMSO) PRL-3 (recombinant PRL-3): 80% | % Phosphatase Activity (compared to DMSO) PRL-2 (recombinant PRL-2): 94% | % Phosphatase Activity (compared to DMSO) PRL-1 (recombinant PRL-1): 91%
